# Tested on: HE4 mRNA
# Assay: HE4 expression by real time PCR
# Format: cell-based
# Conditions: ECC-1, 300 μM, 5 hours, normalized to B2M
# Protocol: Cell lines, Culture, and Reagents. Cells were maintained in either DMEM (SKOV-3, KLE, OVCAR-3, OVCAR8-C5 and IGROV-1) or RPMI-1640 (ECC-1 and HCH-1), supplemented with 10% fetal calf serum (or 20% for OVCAR-3), penicillin (100 units/mL), and streptomycin (100 μg/mL) at 37° C. with 5% CO2 in a humidified incubator. Antibodies were purchased from Abcam (septin-2; ab179436) and Cell Signaling Technology; ERK (9102), p-ERK (4370), -actin (3700), u-Tubulin (2144), EGFR (4267) and HER2 (4290). FCF was purchased from Abcam. All other chemicals were from Sigma Aldrich. Synthesis of Derivaties. […] The reaction was monitored using thin-layer chromatography plates with DCM-MeOH or pure ethyl acetate as eluent. Spots were monitored in a UV chamber. […] Quantitative Real-Time PCR. […] Quantitative real-time PCR was conducted using QuantStudio 12 K Flex Real-Time PCR System (ABI) and the Taqman Gene Expression Assay (ABI) consisting of the FAM-labeled probes as follows: SEPT2 (Hs01565417_ml); WFDC2 (Hs00899484_ml); TBP (Hs00427620_ml) or B2M (Hs00187842_ml), which was used as reference for normalization. […] Cell viability, proliferation, and cellular apoptosis were measured using the MTS (Promega), BrdU cell proliferation (Cell Signaling Technology), and Caspase-Glo 3/7 apoptosis detection (Promega) assays, following the respective manufacturer's recommendations with suitable modification. […]
smiles,measurement,value
"O=C(Nc1ccccc1)Nc1ccnc(Cl)c1 [FCF, N-(2-chloro-4-pyridyl)-N′-phenylurea, reference compound]",HE4 mRNA,suppress HE4 mRNA to some extent
